Measured values from patent EP1743889A1, “Sustituted pyrazoline compounds, having predetermined stereochemistry, for reducing triglycerides in blood” (Laboratorios del Dr. Esteve S.A., priority 2005, dated 2007).

Test system: triglycerides in blood plasma
Assay: In-vivo testing for regulation of triglycerides in blood plasma
Parameters: species or system male mice B6 Lep ob/ob
Details: obese mice fed with high fat diet; 30 mg/kg/day, p.o., 14 days treatment
Source text: This effect is probed in obese mice fed with high fat diet. In the following paragraphs the method of this study is described.
The study is done using six weeks old male mice B6 Lep ob/ob, obtained from Charles River (France). Mice are divided in 3 groups: I (control), II (vehicle), III (example 0).
The animals of the group I receive the standard diet (D-12450B, Research Diets, NJ, USA).
The animals of the groups II and III are fed with a High Fat Diet (D-12492, Research Diets, NJ, USA), in both cases for 7 weeks (References 1 and 2).
The animals of the groups III are fed with a High Fat Diet (D-12492, Research Diets, NJ, USA), in both cases for 7 weeks (References 1 and 2).
At the end of the feeding period of 7 weeks, the treatment period (14 days) is started: Group II mice receive the vehicle (10 ml/kg/day, po, of the aqueous solution of acacia gum, 5% W/V). Group III is administered with 30 mg/kg/day, p.o., of the inventive compound (R)-5-(4-chlorophenyl)-1-(2,4-dichlorophenyl)-4,5-dihydro-pyrazole-3-carboxylic acid according to Example 0. […] The three groups of mice have the same diet than in the previous period.
At the end of the 14 days period of treatment, the blood levels of triglicerides of the animals are determined.
The analysis of the whole blood samples is done using test strips "Lipid panel" and the photometric Analyzer Cardio-Check Test System, from PA Instruments Polymer […]

SMILES: O=C(O)C1=NN(c2ccc(Cl)cc2Cl)[C@@H](c2ccc(Cl)cc2)C1 [Example 0, (R)-5-(4-chlorophenyl)-1-(2,4-dichlorophenyl)-4,5-dihydro-pyrazole-3-carboxylic acid]
- blood levels of triglicerides: inhibitor of high blood levels of triglicerides
